The text below walks through data of patent US4299821A, “Tripeptides acting on the central nervous system and a process for the preparation thereof” (Richter Gedeon Vegyeszeti Gyar Rt., priority 1979, dated 1981).

One test deals with Ethanol narcosis. In words: Ethanol narcosis. The class given is in vivo. As to conditions: mice, 4.5 g ethanol i.p., 10 min later compound 20 mg/kg i.p.; control 46.9 ± 2.17 min. The protocol:
(5) Ethanol narcosis (see J. M. Cott et al.: J. Pharm. Exp. Ther. 196, 594 /1976/) The tests were performed on groups of 20 mice of both sexes, each weighing 18 to 22 g. […] of ethanol were introduced intraperitoneally into the animals, and 10 minutes later the animals were treated intraperitoneally with 20 mg/kg of TRH or a tripeptide under examination. The sleeping periods of the animals were recorded, averages were calculated for the individual groups, and the results were expressed as percents related to the control group.

Test [1] has as its system Haloperidol-induced catalepsy. The test can be described thus: Inhibition of Haloperidol-induced catalepsy on rats. The class given is in vivo, male Wistar rats. Particulars: 40 mg/kg Haloperidol s.c., compound i.v. 120 min later, probit analysis, observation time per compound. The protocol: (1) Inhibition of Haloperidol-induced catalepsy on rats (see J. Delay and P. Deniker: Compt. Rend. Congr. Med. Alenistes Neurologistes, 19, 497, Luxembourg, 1952)
The tests were performed on male Wistar rats weighing 160 to 180 g.
40 mg/kg of 4-(p-chlorophenyl)-1-(3-/p-fluorobenzoyl/propyl)-piperidin-4-ol(Haloperidol) were administered subcutaneously into the animals, and 120 minutes after this treatment the animals were checked for the appearance of catalepsy. The rats were divided into groups of 10 animals each, and treated intravenously with TRH or the new TRH analogues. The animals belonging to the control group received physiological saline. The catalepsy-suspending effects of the individual compounds were determined 15, 30, 60, 90 and 120 minutes after the treatment. The animals that had not changed their position for 30 seconds after placing their fore-paw onto a 7 cm high column were regarded as cataleptic.

Another test has as its system TSH. The test can be described thus: Hormonal activity (TSH effect) on rats. As to conditions: 20 mg/kg i.v., plasma TSH by radioimmune assay 15 min after treatment, relative activity, TRH = 100%. It counts as in vivo, male Wistar rats. The protocol: (6) Hormonal activity (TSH effect) on rats
The tests were performed on groups of 7 or 8 male Wistar rats each, weighing 200 g. The animals were treated intravenously with 20 mg/kg of TRH or a tripeptide under examination. The TSH reaction of the animals was evaluated 15 minutes after this treatment, by subjecting the blood plasma to radioimmune assay. The relative activities were calculated by the four-point method using a TPA 101 computer, and the activity of TRH was regarded as 100%.

In the next test the test system is Reserpine hypothermy. The test can be described thus: Reserpine hypothermy-reversing effect on mice. The class given is in vivo, male mice. Particulars: average of 10 animals; for Reserpine hypothermy reversing effect, Rectal temperature res.: 16 hours after reserpine 5 mg/kg i.p., before the tripeptide; for Reserpine hypothermy reversing effect, Rectal temperature norm.: prior to the administration of reserpine (baseline of the group); for Reserpine hypothermy reversing effect, Rectal temperature obs. time 1 h / Reserpine hypothermy reversing effect, Rectal temperature obs. time 2 h: reserpine 5 mg/kg i.p.; for Reserpine hypothermy reversing effect, Rectal temperature obs. time 1 h: 1 hour after 20 mg/kg of the tripeptide; for Reserpine hypothermy reversing effect, Rectal temperature obs. time 2 h: 2 hours after 20 mg/kg of the tripeptide. The protocol:
(3) Reserpine hypothermy-reversing effect on mice (see B. M. Askew: Life Sci. 2, 725-730 /1963/)
The tests were performed on groups of 10 male mice each, weighing 18 to 22 g. Reserpine was administered into the animals in an intraperitoneal dosage of 5 mg/kg, and 16 hours later the animals were treated with 20 mg/kg of TRH or a tripeptide under examination.
The rectal temperature of the animals was measured prior to the administration of reserpine (marked by "norm." in Table 1), 16 hours after the administration of reserpine (marked by "res." in Table 1), furthermore 1 and 2 hours after the administration of the tripeptide (marked by "obs. time" in Table 1). The data listed in Table 1 are the averages of the temperatures observed on the 10 animals.

The test system of test [2] is locomotive activity induced by L-Dopa. In words: Potentiation of locomotive activity induced on mice by L-Dopa. It counts as in vivo, male mice. Particulars: Pargyline 40 mg/kg i.p., compound 20 mg/kg i.p., L-Dopa 100 mg/kg i.p., percent related to TRH; for Potentiation of the locomotive effect of L-Dopa % after 30': 30 min; for Potentiation of the locomotive effect of L-Dopa % after 60': 60 min; for Potentiation of the locomotive effect of L-Dopa % after 90': 90 min. As for the experimental part: (2) Potentiation of locomotive activity induced on mice by L-Dopa (see The Thyroid Axis, Drugs and Behavior, p. 116, A. J. Prage Jr., Raven Press, New York, 1974)
The tests were performed on groups of 15 male mice each, weighing 18 to 22 g.
First, the animals were treated intraperitoneally with 40 mg/kg of N-methyl-N-propargyl-benzylamine (Pargyline), and then an intraperitoneal dosage of 20 mg/kg of TRH or a TRH-analogue was introduced, followed by an intraperitoneal dosage of 100 mg/kg of L-Dopa. The locomotive activity of the animals was recorded 30, 60 and 90 minutes after this treatment, and the level of potentiation was expressed in percents related to the results observed with TRH.

Test [3] deals with sleeping caused by hexobarbital. The test can be described thus: Influencing the duration of sleeping caused by hexobarbital. The class given is in vivo, male mice. As to conditions: mice, hexobarbital sodium 60 mg/kg i.v., 10 min later compound 20 mg/kg i.p.; control 38.4 ± 1.36 min. The protocol: (4) Influencing the duration of sleeping caused by hexobarbital The tests were performed on groups of 10 male mice each. The animals were treated intravenously with 60 mg/kg of hexobarbital sodium ([…]; Bayer), and 10 minutes later 20 mg/kg of TRH or a tripeptide under examination were administered intraperitoneally into the animals. The sleeping times of the animals were recorded, averages were calculated for the individual groups, and the results were expressed as percents related to the control group.

The structures appear in SMILES notation. Where a SMILES comes first, the peptide text is derived from it. [ ]: non-standard residue; d: D form. pGlu = O=C1CC[C@@H](C(=O)O)N1; Nle = CCCC[C@H](N)C(=O)O; Nva = CCC[C@H](N)C(=O)O; Abu = CC[C@H](N)C(=O)O

Turning to `CCC[C@H](NC(=O)[C@@H]1CCC(=O)N1)C(=O)N1CCC[C@H]1C(N)=O` [Nva Pro H, L-Pyroglutamyl-L-norvalyl-L-prolinamide] ([pGlu]-[Nva]-Pro-NH2), the “Decrease of sleeping period (% related to the control animals) Ethanol” value with Ethanol narcosis was 77%. In test [1], the “Inhibition of Haloperidol catalepsy ED50” value came to 11.4 mg/kg. This molecule also came in with a TSH effect with TSH of 0%. In the test with Reserpine hypothermy, the “Reserpine hypothermy reversing effect, Rectal temperature res.” value was determined as 25.9 °C; the “Reserpine hypothermy reversing effect, Rectal temperature norm.” value is 36.2 °C; the “Reserpine hypothermy reversing effect, Rectal temperature obs. time 1 h” value stood at 36.4 °C; the “Reserpine hypothermy reversing effect, Rectal temperature obs. time 2 h” value was determined as 32.0 °C. Besides, in test [2], the “Potentiation of the locomotive effect of L-Dopa % after 30'” value (“Potentiation … of L-Dopa % after 30'” for short) is 254%, the “Potentiation of the locomotive effect of L-Dopa % after 60'” value (shortened to “Potentiation … of L-Dopa % after 60'”) is recorded as 156% and the “Potentiation of the locomotive effect of L-Dopa % after 90'” value (“Potentiation … of L-Dopa % after 90'” below) came out at 214%. In test [3], the “Decrease of sleeping period (% related to the control animals) Hexobarb.” value was determined as 114%.

In the case of `CC[C@H](NC(=O)[C@@H]1CCC(=O)N1)C(=O)N1CCC[C@H]1C(N)=O` [Abu Pro H, L-Pyroglutamyl-L-α-aminobutyl-L-prolinamide] ([pGlu]-[Abu]-Pro-NH2), the “Decrease of sleeping period (% related to the control animals) Ethanol” value with Ethanol narcosis was 39%. Moreover, the “Inhibition of Haloperidol catalepsy ED50” value in test [1] worked out at 80 mg/kg. Further, in the test with TSH, the TSH effect was determined as 0.02%. For the same molecule, in the test with Reserpine hypothermy, the “Reserpine hypothermy reversing effect, Rectal temperature res.” value is 19.7 °C; the “Reserpine hypothermy reversing effect, Rectal temperature norm.” value was 36.3 °C; the “Reserpine hypothermy reversing effect, Rectal temperature obs. time 1 h” value turned out to be 22.2 °C; the “Reserpine hypothermy reversing effect, Rectal temperature obs. time 2 h” value worked out at 25.4 °C. In test [2], the “Potentiation … of L-Dopa % after 30'” value is 27%, the “Potentiation … of L-Dopa % after 60'” value stood at 14% and the “Potentiation … of L-Dopa % after 90'” value is reported as 18%. Also, the “Decrease of sleeping period (% related to the control animals) Hexobarb.” value in test [3] is on record as 84%.

As for `CCNC(=O)[C@@H]1CCCN1C(=O)[C@H](CC(C)C)NC(=O)[C@@H]1CCC(=O)N1` [Leu Pro Et, L-Pyroglutamyl-L-leucyl-L-proline ethylamide] ([pGlu]-Leu-Pro-NHEt), in the test on Ethanol narcosis, the “Decrease of sleeping period (% related to the control animals) Ethanol” value was determined as 65%. In test [1], the “Inhibition of Haloperidol catalepsy ED50” value is given as 56.6 mg/kg. The molecule further showed a TSH effect in the test on TSH of 0%. In the test with Reserpine hypothermy, the “Reserpine hypothermy reversing effect, Rectal temperature res.” value stood at 28.7 °C; the “Reserpine hypothermy reversing effect, Rectal temperature norm.” value amounted to 36.2 °C; the “Reserpine hypothermy reversing effect, Rectal temperature obs. time 1 h” value came to 30.7 °C; the “Reserpine hypothermy reversing effect, Rectal temperature obs. time 2 h” value turned out to be 33.4 °C. In test [2], the “Potentiation … of L-Dopa % after 30'” value is recorded as 102%, the “Potentiation … of L-Dopa % after 60'” value was 90% and the “Potentiation … of L-Dopa % after 90'” value is recorded as 201%. For the same molecule, the “Decrease of sleeping period (% related to the control animals) Hexobarb.” value in test [3] is listed as 126%.

For the molecule `NC(=O)[C@@H]1CCCCN1C(=O)[C@H](Cc1c[nH]cn1)NC(=O)[C@@H]1CCC(=O)N1` [His HPro H, L-Pyroglutamyl-L-histidyl-L-homoprolinamide], the “Decrease of sleeping period (% related to the control animals) Ethanol” value in the test on Ethanol narcosis is 114%. Further, the “Inhibition of Haloperidol catalepsy ED50” value in test [1] was found to be 13.7 mg/kg. The molecule also returned a TSH effect in the test with TSH of 68.6%. In the test on Reserpine hypothermy, the “Reserpine hypothermy reversing effect, Rectal temperature res.” value came to 28.5 °C; the “Reserpine hypothermy reversing effect, Rectal temperature norm.” value amounted to 36.5 °C; the “Reserpine hypothermy reversing effect, Rectal temperature obs. time 1 h” value is 35.3 °C; the “Reserpine hypothermy reversing effect, Rectal temperature obs. time 2 h” value turned out to be 35.4 °C. For the same molecule, in test [2], the “Potentiation … of L-Dopa % after 30'” value is reported as 209%, the “Potentiation … of L-Dopa % after 60'” value amounted to 85% and the “Potentiation … of L-Dopa % after 90'” value is recorded as 110%. The “Decrease of sleeping period (% related to the control animals) Hexobarb.” value in test [3] was found to be 63%.

For `CCCC[C@H](NC(=O)[C@@H]1CCC(=O)N1)C(=O)N1CCC[C@H]1C(N)=O` [Nleu Pro H, L-Pyroglutamyl-L-norleucyl-L-prolinamide] ([pGlu]-[Nle]-Pro-NH2), the “Decrease of sleeping period (% related to the control animals) Ethanol” value in the test on Ethanol narcosis is recorded as 74%. For the same molecule, the “Inhibition of Haloperidol catalepsy ED50” value in test [1] is on record as 16.8 mg/kg. Also, the TSH effect with TSH is 3.8%. In the test with Reserpine hypothermy, the “Reserpine hypothermy reversing effect, Rectal temperature res.” value was found to be 27.1 °C; the “Reserpine hypothermy reversing effect, Rectal temperature norm.” value worked out at 36.3 °C; the “Reserpine hypothermy reversing effect, Rectal temperature obs. time 1 h” value is 37.6 °C; the “Reserpine hypothermy reversing effect, Rectal temperature obs. time 2 h” value came out at 32.2 °C. In test [2], the “Potentiation … of L-Dopa % after 30'” value was 249%, the “Potentiation … of L-Dopa % after 60'” value came to 105% and the “Potentiation … of L-Dopa % after 90'” value was 112%. Besides, the “Decrease of sleeping period (% related to the control animals) Hexobarb.” value in test [3] was 77%.

Regarding `NC(=O)[C@@H]1CCCN1C(=O)[C@H](Cc1c[nH]cn1)NC(=O)[C@@H]1CCC(=O)N1` [TRH, L-pyroglutamyl-L-histidyl-L-prolinamide, reference compound], the “Decrease of sleeping period (% related to the control animals) Ethanol” value with Ethanol narcosis was determined as 35%. Moreover, the “Inhibition of Haloperidol catalepsy ED50” value in test [1] was 80 mg/kg. Also, the TSH effect in the test on TSH is 100.0%. In the test with Reserpine hypothermy, the “Reserpine hypothermy reversing effect, Rectal temperature res.” value was found to be 25.9 °C; the “Reserpine hypothermy reversing effect, Rectal temperature norm.” value stood at 36.2 °C; the “Reserpine hypothermy reversing effect, Rectal temperature obs. time 1 h” value was determined as 33.5 °C; the “Reserpine hypothermy reversing effect, Rectal temperature obs. time 2 h” value was determined as 30.2 °C. Also, in test [2], the “Potentiation … of L-Dopa % after 30'” value was 100%, the “Potentiation … of L-Dopa % after 60'” value is 100% and the “Potentiation … of L-Dopa % after 90'” value is 100%. For the same molecule, the “Decrease of sleeping period (% related to the control animals) Hexobarb.” value in test [3] came out at 56%.
